“And” between values parts separate entries of the source, which are not always exact repeats. Equal values may be shown once.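 96-well plates; 48 h exposure; 5 concentrations. Endpoints by linear interpolation between flanking doses. Not reached: highest tested concentration assigned. Here, GI50 denotes the concentration required for 50% inhibition of growth. TGI: total growth inhibition.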
How the values were obtained:
Test in all cases: DTP human tumour cell line panel, 48 h
MALME-3M melanoma = system: MALME-3M melanoma
MDA-MB-231 breast = system: MDA-MB-231 breast
CAKI-1 renal = system: CAKI-1 renal
SF-268 CNS = system: SF-268 CNS
LXFL 529 NSCLC = system: LXFL 529 NSCLC
DU-145 prostate = system: DU-145 prostate
TK-10 renal = system: TK-10 renal
BT-549 breast = system: BT-549 breast
DLD-1 colon = system: DLD-1 colon
UACC-62 melanoma = system: UACC-62 melanoma

Compound	TGI (MALME-3M melanoma)	TGI (MDA-MB-231 breast)	TGI (CAKI-1 renal)	TGI (SF-268 CNS)	GI50 (LXFL 529 NSCLC)	TGI (LXFL 529 NSCLC)	TGI (DU-145 prostate)	TGI (TK-10 renal)	TGI (BT-549 breast)	TGI (DLD-1 colon)	TGI (UACC-62 melanoma)	GI50 (MDA-MB-231 breast)	GI50 (BT-549 breast)
COc1cccc2c1C(=O)c1c(O)c3c(c(O)c1C2=O)C[C@@](O)(C(C)=O)C[C@@H]3OC1CC(O)C(O)C(C)O1 (stereo partly specified)	6.66 µM and 5.96 µM	> 100 µM	5.57 µM and 4.94 µM	9.38 µM and 12.8 µM	1.49 µM	15.3 µM	8.55 µM	81.3 µM	20.1 µM	15.9 µM	–	–	–
Cc1[nH]c(=O)nc(N/N=C/c2ccc(Cl)cc2)c1C(=O)Nc1ccc(Cl)cc1	55.2 µM	26.2 µM	> 90.9 µM	> 100 µM	–	> 73.3 µM	> 100 µM	56.9 µM	> 100 µM	> 100 µM	> 100 µM	–	–
COC1C(O)CC(OC2CC(OC3CC(O[C@@H]4C(=O)c5c(cc6cc(OC7CC(OC8CC(O)C(O)C(C)O8)C(O)C(C)O7)c(C)c(O)c6c5O)C[C@H]4[C@H](OC)C(=O)[C@@H](O)[C@@H](C)O)OC(C)C3O)OC(C)C2O)OC1C (stereo partly specified)	0.243 µM	> 100 µM	> 100 µM	> 94 µM	–	> 100 µM	0.281 µM	> 39.8 µM	11.2 µM	> 100 µM	0.265 µM	–	–
O=C1c2ccccc2C(=O)c2sc(Nc3ccc(Cl)cc3)nc21	3.25 µM	7.38 µM	5.86 µM	5.52 µM	–	3.1 µM	–	14.6 µM	11.7 µM	3.41 µM	4.05 µM	1.17 µM	2.87 µM
CNC(=O)/C(=C/c1ccc(OC)cc1)c1cc(OC)c(OC)c(OC)c1	> 54.5 µM	> 77.9 µM	> 100 µM	> 84.7 µM	–	> 100 µM	> 43 µM	> 100 µM	> 100 µM	> 100 µM	> 48.6 µM	–	–
